Test results: patent publication US8471061B2 (priority 2004, dated 2013)
“And” between values parts separate entries of the source, which are not always exact repeats. Equal values may be shown once.

Assays:
[1] = system: Salmonella typhimurium TA 100; experiment: Back mutation test, TA100; assay type: cell-based; conditions: for number of back mutation, single plates: Phosphate
Experimental: A test was carried out in accordance with the “Standard of Mutagenicity Tests Using Microorganisms” (Ministry of Labor Notification No. 77, 1988) (partial revision by Ministry of Labor Notification No. 67, 1997) and “Regarding the Tests Concerning Novel Chemical Substances and the like” (dated Nov. 21, 2003: Yaku-Shoku-Hatsu No. 1121002, 2003.11.13 Sei-Kyoku, No. 2, Kan-Ho-Ki-Hatsu No. 031121002). To 0.1 ml of a solution prepared by dissolving 5% (w/v) of 5-aminolevulinic acid phosphate in distilled water (Wako Pure Chemical Industries), 0.5 ml of 0.1 M sodium-phosphate buffer (pH 7.4) (0.5 ml S9 mix in the case of metabolism activation test) was added, and 0.1 ml of each test strain suspension (5 strains of histidine-less Salmonella typhimurium TA 100, TA 98, TA 1535 and TA 1537 and tryptophan-less Escherichia coli WP2 uvrA were used (Japan Bioassay Research Center)) was further added thereto, followed by pre-incubation at 37° C. for 20 minutes while shaking. After completion of the culturing, 2.0 ml of top agar kept at 45° C. in advance was added thereto and layered on a minimum glucose agar plate medium. In this case, 2 plates were arranged for each dosage. However, 3 plates were arranged for a solvent control (negative control). […] In the measurement, an inner area of about 80 mm in diameter of a plate of 86 mm in diameter (84 mm in inner diameter) was measured using an automatic colony analyzer (CA-11: manufactured by System Science), and calculated by carrying out area correction and counting loss correction using a personal computer. However, since reliability of the automatic colony analyzer is reduced when the number of colonies is 1,500 or more, 5 points in the plate were manually measured under the stereoscopic microscope to carry out area correction of the average value. A dosage setting test was carried out on 7 dosages diluted at a common ratio of 4, using a dosage of 5,000 μg/plate as the maximum which is the maximum dosage defined by the guideline. […] Growth inhibition of the strains by this substance to be tested was not found. […] Thus, this test was carried out by setting 5 dosages diluted at a common ratio of 2, using a dosage of 5,000 μg/plate as the maximum which is the maximum dosage defined by the guideline.

[2] = pH of solution of 0.5 g in 0.5 ml of distilled water; assay type: physicochemical
Experimental: Using three New Zealand white rabbits (males), a solution prepared by dissolving 0.5 g of 5-aminolevulinic acid phosphate in 0.5 ml of distilled water (pH 3.1) was applied for 4 hours to a 2.5 cm square area of the shaved uninjured skin of each animal which was then observed for 1, 24, 48 and 72 hours.

[3] = system: cotton (variety; M-5 Acala); experiment: Salinity tolerance improving effect; assay type: in vivo; set-up: key: salt damage: 0 = none, 5 = plant withered
Experimental: A porcelain pot of 12 cm in inner diameter having no drainage hole was filled with 600 g of upland soil, and 7 to 8 seeds of cotton seeds (variety; M-5 Acala) were sowed, covered with 1 cm in thickness of the soil and allowed to grow in a green house. Thereafter, general management was carried out, and at the time of leaflet development, a salinity improving agent containing each of the compounds to be tested with respective concentrations shown in Table 12 and 0.05% (v/v) of a spreader (Neoesterin: manufactured by Kumiai Chemical Industry) was prepared and was applied to foliage at an application volume of 100 liters per 10 are. Four days thereafter, sodium chloride in an amount which corresponds to 0 to 1.5% by weight per soil weight as shown in Table 12 was dissolved in 30 ml of water and added dropwise to the soil. By further continuing general cultivation, examination was carried out 23 days thereafter. the examination was carried out by naked eye observation, and the results of salt damage were evaluated based on the following 6 steps.
• 0: Absolutely no salt damage is observed. • 1: Very weak salt damage is observed. • 2: Weak salt damage is observed. • 3: Obvious salt damage is observed. • 4: Strong salt damage is observed. • 5: The plant body withered up due to salt damage.

radish = experiment: Plant activating effect, foliar application, radish; assay type: in vivo; conditions: 21 days, 12 seeds
Experimental: After 600 g of upland soil was packed in a porcelain pot of 12 cm in inner diameter, 12 grains of radish seeds were sowed therein, covered with 5 mm in depth of the soil and allowed to grow in a green house. Foliar application treatment was carried out once a day using the following application liquids. Conditions of the leaves 21 days thereafter were observed.

[4] = treating concentration 10 ppm, NaCl 0 wt % per soil weight
[5] = treating concentration 10 ppm, NaCl 0.5 wt % per soil weight
[6] = treating concentration 10 ppm, NaCl 0.75 wt % per soil weight
[7] = treating concentration 10 ppm, NaCl 1 wt % per soil weight
[8] = treating concentration 10 ppm, NaCl 1.5 wt % per soil weight
[9] = treating concentration 30 ppm, NaCl 0 wt % per soil weight
[10] = treating concentration 30 ppm, NaCl 0.5 wt % per soil weight
[11] = treating concentration 30 ppm, NaCl 0.75 wt % per soil weight
[12] = treating concentration 30 ppm, NaCl 1 wt % per soil weight
[13] = treating concentration 30 ppm, NaCl 1.5 wt % per soil weight
[14] = treating concentration 100 ppm, NaCl 0 wt % per soil weight
[15] = treating concentration 100 ppm, NaCl 0.5 wt % per soil weight
[16] = treating concentration 100 ppm, NaCl 0.75 wt % per soil weight
[17] = treating concentration 100 ppm, NaCl 1 wt % per soil weight
[18] = treating concentration 100 ppm, NaCl 1.5 wt % per soil weight
[19] = treating concentration 300 ppm, NaCl 0 wt % per soil weight
[20] = treating concentration 300 ppm, NaCl 0.5 wt % per soil weight
[21] = treating concentration 300 ppm, NaCl 0.75 wt % per soil weight
[22] = treating concentration 300 ppm, NaCl 1 wt % per soil weight
[23] = treating concentration 300 ppm, NaCl 1.5 wt % per soil weight

NCC(=O)CCC(=O)O.O=P(O)(O)O [5-aminolevulinic acid phosphate, 5-aminolevulinic Acid Phosphate]
number of back mutation, mean (in parentheses) ([1]; S9 Mix(+), 313 μg/plate): (134) colonies/plate | number of back mutation, single plates ([1]; S9 Mix(+), 313 μg/plate): 146 colonies/plate and 122 colonies/plate | number of back mutation, mean (in parentheses) ([1]; S9 Mix(+), 625 μg/plate): (102) colonies/plate | number of back mutation, single plates ([1]; S9 Mix(+), 625 μg/plate): 107 colonies/plate and 96 colonies/plate | number of back mutation, mean (in parentheses) ([1]; S9 Mix(+), 1250 μg/plate): (129) colonies/plate | number of back mutation, single plates ([1]; S9 Mix(+), 1250 μg/plate): 128 colonies/plate and 129 colonies/plate | number of back mutation, mean (in parentheses) ([1]; S9 Mix(+), 2500 μg/plate): (106) colonies/plate | number of back mutation, single plates ([1]; S9 Mix(+), 2500 μg/plate): 109 colonies/plate and 102 colonies/plate | number of back mutation, mean (in parentheses) ([1]; S9 Mix(+), 5000 μg/plate): (133) colonies/plate | number of back mutation, single plates ([1]; S9 Mix(+), 5000 μg/plate): 130 colonies/plate and 136 colonies/plate | number of back mutation, mean (in parentheses) ([1]; S9 Mix(−), 313 μg/plate): (85) colonies/plate | number of back mutation, single plates ([1]; S9 Mix(−), 313 μg/plate): 87 colonies/plate and 82 colonies/plate | number of back mutation, mean (in parentheses) ([1]; S9 Mix(−), 625 μg/plate): (90) colonies/plate | number of back mutation, single plates ([1]; S9 Mix(−), 625 μg/plate): 84 colonies/plate and 95 colonies/plate | number of back mutation, mean (in parentheses) ([1]; S9 Mix(−), 1250 μg/plate): (99) colonies/plate | number of back mutation, single plates ([1]; S9 Mix(−), 1250 μg/plate): 84 colonies/plate and 114 colonies/plate | number of back mutation, mean (in parentheses) ([1]; S9 Mix(−), 2500 μg/plate): (79) colonies/plate | number of back mutation, single plates ([1]; S9 Mix(−), 2500 μg/plate): 76 colonies/plate and 82 colonies/plate | number of back mutation, mean (in parentheses) ([1]; S9 Mix(−), 5000 μg/plate): (107) colonies/plate | number of back mutation, single plates ([1]; S9 Mix(−), 5000 μg/plate): 115 colonies/plate and 99 colonies/plate | pH of solution [2]: 3.1 | salt damage evaluation [3, 4]: 0 | salt damage evaluation [3, 5]: 0 | salt damage evaluation [3, 6]: 1 | salt damage evaluation [3, 7]: 2 | salt damage evaluation [3, 8]: 3 | salt damage evaluation [3, 9]: 0 | salt damage evaluation [3, 10]: 0 | salt damage evaluation [3, 11]: 0 | salt damage evaluation [3, 12]: 1 | salt damage evaluation [3, 13]: 2 | salt damage evaluation [3, 14]: 0 | salt damage evaluation [3, 15]: 1 | salt damage evaluation [3, 16]: 2 | salt damage evaluation [3, 17]: 3 | salt damage evaluation [3, 18]: 4 | salt damage evaluation [3, 19]: 0 | salt damage evaluation [3, 20]: 1 | salt damage evaluation [3, 21]: 1 | salt damage evaluation [3, 22]: 2 | salt damage evaluation [3, 23]: 3

Cl.NCC(=O)CCC(=O)O [5-aminolevulinic acid hydrochloride, reference compound]
pH of solution [2]: ≤ 2.0 | plants judged 0: Abnormality was not found on the leaf surface (radish; 1 ppm in tap water): 4 plants | plants judged 1: A region discolored to yellow was found on the leaf surface (radish; 1 ppm in tap water): 6 plants | plants judged 2: A necrotic region was found on the leaf surface (radish; 1 ppm in tap water): 2 plants | plants judged 0: Abnormality was not found on the leaf surface (radish; 10 ppm in tap water): 4 plants | plants judged 1: A region discolored to yellow was found on the leaf surface (radish; 10 ppm in tap water): 4 plants | plants judged 2: A necrotic region was found on the leaf surface (radish; 10 ppm in tap water): 4 plants | plants judged 0: Abnormality was not found on the leaf surface (radish; 100 ppm in tap water): 3 plants | plants judged 1: A region discolored to yellow was found on the leaf surface (radish; 100 ppm in tap water): 5 plants | plants judged 2: A necrotic region was found on the leaf surface (radish; 100 ppm in tap water): 4 plants | salt damage evaluation [3, 4]: 0 | salt damage evaluation [3, 5]: 1 | salt damage evaluation [3, 6]: 1 | salt damage evaluation [3, 7]: 1 | salt damage evaluation [3, 8]: 2 | salt damage evaluation [3, 9]: 0 | salt damage evaluation [3, 10]: 1 | salt damage evaluation [3, 11]: 2 | salt damage evaluation [3, 12]: 3 | salt damage evaluation [3, 13]: 3 | salt damage evaluation [3, 14]: 0 | salt damage evaluation [3, 15]: 1 | salt damage evaluation [3, 16]: 1 | salt damage evaluation [3, 17]: 2 | salt damage evaluation [3, 18]: 3 | salt damage evaluation [3, 19]: 0 | salt damage evaluation [3, 20]: 0 | salt damage evaluation [3, 21]: 1 | salt damage evaluation [3, 22]: 1 | salt damage evaluation [3, 23]: 2
